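These data come from cells grown in 96-well plates and exposed to compound for 48 hours at five concentrations. At the GI50, growth is halved. The concentration for full growth arrest is given as TGI.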
Columns and labels:
Experiment in all cases: growth of human tumour cells (NCI), 48 h
[1] = tested on: NCI-H226 lung
[2] = tested on: NCI/ADR-RES ovarian
[3] = tested on: SK-MEL-5 melanoma
[4] = tested on: HS 578T breast
[5] = tested on: MDA-MB-435
[6] = tested on: CCRF-CEM leukemia
[7] = tested on: HT29 colon
[8] = tested on: UO-31 renal
[9] = tested on: DU-145 prostate
[10] = tested on: UACC-62 melanoma

SMILES | GI50 [1] [nM] | TGI [1] [nM] | GI50 [2] [nM] | TGI [2] [nM] | GI50 [3] [nM] | TGI [3] [nM] | GI50 [4] [nM] | TGI [4] [nM] | GI50 [5] [nM] | TGI [5] [nM] | TGI [6] [nM] | TGI [7] [nM] | TGI [8] [nM] | TGI [9] [nM] | TGI [10] [nM]
COc1ccc2c(CCCCC(c3ccccc3)c3ccccc3)c3[n+](cc2c1OC)CCc1cc2c(cc1-3)OCO2 | 280 | 1850 | 1830 | 7480 | 45.1 | 177 | 536 | 3090 | 106 | 1020 |  |  |  |  | 
[O-]c1c2cc(-[n+]3c(-c4ccccc4)cc(-c4ccccc4)cc3-c3ccccc3)cc1CO[C@@H](c1ccccc1)[C@H](c1ccccc1)OCCOCCO[C@@H](c1ccccc1)[C@H](c1ccccc1)OC2 |  |  |  |  |  |  |  | 3120 |  |  | 238 | 646 | > 100000 | 1140 | 1390
